The subject of one series is ED-1 (macrophages). The experiment in a line: Immunohistochemical staining of liver sections, ED-1 positive cells (macrophages). The class given is in vivo, albino Wistar rats. Particulars: mean±SEM, 8 rats. The method, then: (§1) The experimental hepatocarcinogenesis model was developed according to a protocol by Espandiaria et al. that was adapted for our purposes. To initiate and promote hepatocarcinogenesis, diethylnitrosamine (DEN) and 2-acetylaminofluorene (2-AAF) were used, respectively. For hepatocarcinogenesis initiation in this model, a single DEN dose (200 mg/kg b.wt.) dissolved in saline was injected intraperitoneally. After initiation, all rats underwent one period of 5-days fasting, as mitotic proliferative stimuli. To promote hepatocarcinogenesis, 2-acetylaminofluorene (2-AAF) was introduced in the form of six daily intragastric doses (30 mg/kg in 1% Tween 80); two weeks after DEN treatment.
(§2) Safranal at doses of 25 mg/kg by weight (b.wt.) and 50 mg/kg b.wt, was administrated orally to rats. These doses have been reported to suppress chemically-induced oxidative damage in rats. A total of 40 adult male albino Wistar rats were randomly divided into […] (n=8) and were subjected to different treatments. Group 1 (control) was orally administered distilled water (5 ml/kg b.wt.) throughout the experimental duration and were injected with a single dose of saline. Group 2 (Safranal only) was subjected to a safranal dose (50 mg/kg b.wt.) through oral administration for the duration of the experimental period. Hepatocarcinogenesis was induced by DEN and promoted by 2-AAF, as reported previously, in group 3 (HCC). Rats in protective groups (groups 4-5) were treated with low/high doses of saffron-based safranal suspensions, at the beginning of promotion periods and continued for 12 weeks. The low dosage treatment with safranal consisted of 25 mg/kg b.wt., and the high dosage treatment consisted of 50 mg/kg b.wt. The experimental design is illustrated in FIG. 1.
(§3) For immunohistochemical staining, mounted sections were immersed in sodium citrate buffer (0.1 M, pH 6) and placed in a water bath for 15 minutes to unmask antigen epitopes. […] Ten fields were randomly selected to quantify positive cells, in individual samples (400×). […]

Another series has as its system COX-2. The experiment in a line: Immunohistochemical staining of liver sections, COX-2 positive cells. It is filed as in vivo, albino Wistar rats. Particulars: mean±SEM, 8 rats. The protocol:
as §1, §2, §3

Series [1] deals with placental glutathione s-transferase (GST-p). Nature of the series: Immunohistochemical staining of liver sections, GST-p positive foci. It is filed as in vivo, albino Wistar rats. The protocol: as §1
Safranal at doses of 25 mg/kg by weight (b.wt.) and 50 mg/kg b.wt, was administrated orally to rats. These doses have been reported to suppress chemically-induced oxidative damage in rats. A total of 40 adult male albino Wistar rats were randomly divided into […] (n=8) and were subjected to different treatments. […]
as §3

In a further series the test system is TNF-α. Nature of the series: TNF-α level in serum by ELISA. The class given is in vivo, albino Wistar rats. The protocol: as §1
(§4) Safranal at doses of 25 mg/kg by weight (b.wt.) and 50 mg/kg b.wt, was administrated orally to rats. These doses have been reported to suppress chemically-induced oxidative damage in rats. A total of 40 adult male albino Wistar rats were randomly divided into […] (n=8) and were subjected to different treatments. Group 1 (control) was orally administered distilled water (5 ml/kg b.wt.) throughout the experimental duration and were injected with a single dose of saline. […]
TNF-α level in serum was quantitatively measured using Enzyme-Linked Immunosorbent Assay (ELISA), according to the manufacturer instructions (ELISA kits (R&D Systems), Minnesota, USA. Results are presented in picograms/milligrams.

Another series deals with HDAC. The experiment in a line: HDAC colorimetric assay in liver homogenate. It is filed as in vivo, albino Wistar rats. The method, then:
as §1
as §4, with “saline. Group 2 (Safranal only) was subjected to a safranal dose (50 mg/kg b.wt.) through oral administration for the duration of the experimental period.” for “saline.”

The nature of series [2]: Cell viability assay (CellTiter-Glo). The class given is cell-based, human. Particulars: human, HepG2 cells, 1 mM safranal, read-out: reduction of cell viability. The protocol: (§5) HepG2, were cultured in RPMI 1640 medium (HyClone, USA) and 1% of 100 U/ml penicillin and 100 ug/ml streptomycin (Sigma, USA) supplemented with 10% fetal bovine serum (Sigma, USA) at 37° C. in a humidified 5% CO2 atmosphere. Cells were sub-cultured each 4-6 days using trypsin 0.25% (Hyclone, USA).
(§6) HepG2 cells were seeded in 96-well plates at the density of 10000 cells/well and grown in 100 uL of complete growth medium. Complete growth medium was replaced by serum-free medium after cells were allowed to attach for 24 hours; after which cells were incubated for at least 12 hours. Cells were incubated for 24 hours after treatment with various concentrations of safranal (1 mM, 0.3 mM, 0.1 mM, 0.03 mM, 0.01 mM) prepared from 10 mM stock solution. After incubation period, viability of HepG2 cells was assessed using CellTiter-Glo luminescent cell viability assay kit according to manufacturer's instruction (Promega, USA).
(Cellular ATP, detected with luciferase, serves as a proxy for viable cell number.)

Another series has as its system HepG2 cells. Nature of the series: Cell viability assay (CellTiter-Glo). The class given is cell-based, human. Particulars: 0.01, 0.03, 0.1, 0.3, 1 mM, 24 hours. The protocol: as §5, §6
[3] abbreviates: HCC (DEN/2-AAF) rats + safranal high dose 50 mg/kg b.wt. oral, 12 weeks.
[4] abbreviates: HCC (DEN/2-AAF) rats + safranal low dose 25 mg/kg b.wt. oral, 12 weeks.
Setting [5] is: safranal alone 50 mg/kg b.wt. oral, no DEN (group 2).

The structures appear in SMILES notation. Marks after values point to notes of the source that are not given here.

For `CC1=C(C=O)C(C)(C)CC=C1` [Safranal, 2,6,6-trimethylcyclohexa-1,3-diene-1-carbaldehyde], the ED-1 positive cells is given as 49.84 ± 2.28^b positive cells/field in the series on ED-1 (macrophages) (setting [3]), 59.19 ± 2.0^a&b positive cells/field in the series on ED-1 (macrophages) (setting [4]) and 44.33 ± 1.52 positive cells/field in the series with ED-1 (macrophages) (setting [5]). The values for the COX-2 positive cells with COX-2 (setting [3]), in the series with COX-2 (setting [4]) and in the series on COX-2 (setting [5]) were 6.91 ± 1.09^a&b positive cells/field, 2.15 ± 0.38^b positive cells/field and 0.58 ± 0.04 positive cells/field, respectively. The “number of GST-p positive foci and area/cm^2” value in series [1] (safranal treatment after DEN exposure (groups 4-5, 25/50 mg/kg b.wt.)) was “significantly reduced the number of GST-p positive foci and the area/cm^2”. In addition, in series [1] (safranal treatment alone (group 2)), the GST-p positive foci entry is “did not induce formation of such foci”. The “TNF-α level in serum” value in the series with TNF-α (low/high doses of safranal after DEN exposure (groups 4-5)) is on record as “significant reduction in TNF-α expression”; in the series on TNF-α (safranal alone (group 2), vs control group) it was “no significant impact”. Moreover, the “HDAC activity in liver” value in the series on HDAC (low/high doses of safranal, DEN-treated (groups 4-5)) was “restored HDAC activity to the normal range”; in the series on HDAC (safranal alone (group 2), compared to control), “did not change HDAC activity”. For the same molecule, the cytotoxicity at 24 h, 1 mM in series [2] was around 70%. Also, the HepG2 cells viability result in the series with HepG2 cells is listed as “significant dose-dependent reduction”.

(Values after patent US10912741B2, “Prevention of liver cancer with safranal-based formulations” (United Arab Emirates University, priority 2019, dated 2021).)
